The test system of assay [1] is EGFR, β1 integrin, Akt, MEK, GLUT3, glycolytic enzymes in T4-2 cells. The experiment in a line: Western blots of signaling intermediates, GLUT3 and metabolic enzymes in 3D lrECM cultures of T4-2 cells. Particulars: T4-2 cells. It counts as cell-based, human. As for the experimental part:
Cell colonies were separated from lrECM gels by shaking in PBS containing 5 mM EDTA and the proteinase inhibitor cocktail set I (Calbiochem) on ice for 30 min. Cells were lysed in lysis buffer (1% NP-40, 1% deoxycholate, 2% SDS, 150 mM NaCl, 20 mM Tris-HCl [pH 7.4] plus 5 mM EDTA and protease inhibitor cocktail set I and phosphatase inhibitor cocktail set I [Calbiochem]) and sonicated three times for 30 sec each. Proteins were separated by SDS-PAGE, transferred to nitrocellulose membranes, and probed with antibodies against the following proteins: phosphorylated MEK, MEK, phosphorylated Akt, Akt, phosphorylated AMPK, AMPK, p70S6K, phosphorylated p70S6K, CHOP, EPAC1 (Cell Signaling), β1 integrin, EGFR, activated EGFR, HIF-1α, (Chemicon International), PFKP (Abgent), GAPDH, GLUT3 (GeneTex), LDHA, PDHE1α, DLAT, DLD, HIF-3α, Rap1, sAC, EPAC2, OGT, Lamin A/C (Santa Cruz Biotechnology), Aldolase (Polysciences), GFPT (ProteinTech Group), HIF-2α (Abcam), and HA-tag (Covance). After probing with HRP-conjugated secondary antibodies, blots were developed using SuperSignal West Femto chemiluminescence reagent (Pierce Biotechnology). Images were captured using Fluor Chem 8900 imager (Alpha Innotech).
(In western blotting, separated proteins are transferred to a membrane and probed.)

The test system of assay [2] is T4-2 cells. The experiment in a line: Mitochondrial activity (MitoTracker oxidation) assay in 3D lrECM. Type of assay: cell-based, human. As for the experimental part:
Cells suspended in 200 μl lrECM were seeded in 12 well glass-bottom plates (14 mm diameter; MatTek Corporation). Gels were overlaid with 500 μl H14 media and cultured for 10 days before each assay unless otherwise described.
For mitochondrial activity, we slightly modified the method described previously (Morici et al., 2007). Briefly, cells were incubated with 2 μM MitoTracker® Orange CM-H2 TMRos (Invitrogen) for 1 hour and fixed with PFA as above. Cells were counterstained with Hoechst 33342 (Invitrogen), which is known also to bind to DNA stoichiometrically, then MitoTracker and Hoechst staining were measured by taking z-section images from top to bottom of the gels using confocal microscopy.
In each assay, one well, containing only lrECM, was made for background measurements. Glucose uptake measured by 2DG uptake, lactate production and MitoTracker staining were normalized using total DNA levels, and presented relative to that of control (either S1 or non-treated T4-2 cells).

Assay [3] relates to T4-2 cells. The settings on record: T4-2 cells, 3D lrECM. As for the experimental part:
(§1) HMT-3522 cells were cultured on tissue culture plastic (2D) and in 3D lrECM gels with H14 medium, a 1:1 mix of DMEM/F12 (UCSF Cell Culture Facility) supplemented with 250 ng/ml insulin, 10 μg/ml transferrin, 2.6 ng/ml sodium selenite, 0.1 nM β-estradiol, 1.4 μM hydrocortisone and 5 μg/ml prolactin but no serum. S1 cells were additionally supplemented with 10 ng/ml EGF. MDA-MB-231 and HCC70 cells were cultured in DMEM and RPMI1640, respectively, and were supplemented with 10% fetal bovine serum (FBS).
(§2) For 3D lrECM cultures, S1 and T4-2 cells were seeded at 840,000 and 600,000 cells per cm3 respectively in lrECM gel (Cultrex), overlaid with H14 medium. MDA-MB-231 and HCC70 cells were seeded at 625,000 cell per cm3 and overlaid with H14 medium supplemented with 1% FBS. Cells were used for each assay after 10 days, unless otherwise indicated.
Pieces of lrECM gel containing cell colonies were suspended in approximately the same volume of phosphate buffered saline (PBS) and directly spread on glass slides. After brief air-drying, colonies were fixed with 3.7% paraformaldehyde (PFA) in PBS at room temperature (RT) for 10 min, washed with PBS containing 0.1 mM glycine, and permeabilized with 1:1 methanol/acetone at −20° C. for 10 min. After blocking with IF buffer (0.2% Triton X-100, 0.1% BSA [radioimmunoassay grade], 0.05% Tween 20, 7.7 mM NaN3 in PBS) containing 10% goat serum and 1% goat F(ab′)2 anti-mouse immunoglobulin G (IgG; Caltag) at RT for 30 min, colonies were stained with anti-α6 integrin antibody (Chemicon International) at 4° C. overnight. Colonies were washed extensively with IF buffer, and stained with Alexa 568-labeled anti-rat IgG antibody at RT for 2 hr. Colonies were washed with IF buffer again, and nuclei were stained with DAPI at RT for 10 min. Slides were briefly washed with PBS and mounted with 50% glycerol in PBS.
To test whether increased glucose metabolism itself is required for oncogenic signaling events, we utilized 3D lrECM cultures of HMT-3522, a breast cancer progression series which includes non-malignant (S1) and malignant (T4-2) human breast epithelial cells from the same individual (Briand et al., 1987; Petersen et al., 1992; Rizki et al., 2008). Using these cells, we have described the involvement and reciprocity of multiple signaling pathways including EGFR, β1 integrin, PI3K-Akt and MEK-ERK in oncogenic events (Beliveau et al., 2010; Bissell et al., 2005). […] We thus used this “phenotypic reversion” of the cancer cells as an assay to examine how the signaling integration plan of the breast acini could involve glucose metabolism.

Another assay has as its system EGFR, ITGB1, GLUT3 mRNA. The experiment in a line: Quantitative PCR of EGFR, ITGB1 and GLUT3 mRNA in T4-2 cells. Type of assay: cell-based, human. The settings on record: 3D lrECM, normalized to 18S ribosomal RNA. How it is done: First strand cDNA pools of S1, T4-2 and reverted T4-2 cells were obtained from total RNA of each sample by using SuperScript II (Invitrogen). For each sample, reverse transcription was carried out with random hexamer and with oligo dT primer following the manufacturer's instruction, and the two reactions were mixed in a ratio of 9:1. Expression levels of EGFR, ITGB1, GLUT3 and 18S ribosomal RNA (used as a control) were quantified in LightCycler system (Roche) using QuantiTect SYBR Green PCR Kits (QIAGEN) and the reverse transcription mixtures. Expression levels of EGFR, ITGB1, GLUT3 were normalized to that of 18S ribosomal RNA.

Another assay has as its system S1 cells. The experiment in a line: 3D lrECM culture of non-malignant S1 cells: acinar morphology and growth. It counts as cell-based, human. The settings on record: 2DG 4 mM, OGM 4 ng/ml. How it is done: as §1, §2
Pieces of lrECM gel containing cell colonies were suspended in approximately the same volume of phosphate buffered saline (PBS) and directly spread on glass slides. After brief air-drying, colonies were fixed with 3.7% paraformaldehyde (PFA) in PBS at room temperature (RT) for 10 min, washed with PBS containing 0.1 mM glycine, and permeabilized with 1:1 methanol/acetone at −20° C. for 10 min. […]

Assay [4] deals with S1 cells infected with GLUT3-HA-encoding lentivirus. The experiment in a line: 3D lrECM culture of S1 cells overexpressing GLUT3. It counts as cell-based, human. Particulars: S1 cells over-expressing GLUT3-HA, 2DG 4 mM. An excerpt:
HIV 5′ LTR sequence in pTRIPZ vector (Open Biosystems) was removed by FspI-BbvCI digestion to replace with sequence containing chimeric CMV promoter-HIV 5′ LTR. CMV promoter was amplified by PCR from pcDNA3 (Invitrogen), fused to sequence containing partial HIV 5′ LTR sequence. The resulting intermediate vector, pTRIPZ-OY (optimal yield) was digested with BbvCI and NotI, to remove sequence containing TRE-minCMV promoter, turboRFP, UbqC promoter and rtTA3 (described in the manual provided by the manufacturer). The sequences containing EF1α/HTLV hybrid promoter and multiple cloning sites were removed from pCDH-EF1-MCS-T2A-Puro vector (System Bioscience) by digestion with the same restriction enzymes, and ligated into the digested pTRIPZ-OY vector, resulting in pLETIP vector. GLUT3 cDNA fused to C-terminal HA tag was amplified from total cDNA of T4-2 cells by PCR. The primers used were as follows: 5′-[…]-3′ (SEQ ID NO: 9) and 5′-[…] TTAGCA-3′ (SEQ ID NO: 10). The amplified cDNA was digested with BamHI and XmaI, and ligated into the same sites of pBluescriptII SK(−) vector for validating the sequence. GLUT3-HA cDNA was then digested with BamHI and SmaI, and ligated into pLETIP vector digested with NotI, blunted with T4 polymerase and further digested with BamHI, resulting in pLETIP GLUT3-HA vector. […]

The mark [5] stands for this setting: same inhibitor concentrations as E1.

“Also recorded” adds a separate entry of the source.

As to `O=CC[C@@H](O)[C@H](O)[C@H](O)CO` [2DG, 2-deoxy-D-glucose], in assay [1] (3D cultures, 2DG 4 mM), the “expression of ER stress marker CHOP” value was “unchanged” and the “phosphorylation of AMPK or S6K” value is listed as “did not affect”. In assay [1] (3D lrECM, Western blot), the “expression of GLUT3 and the glycolytic enzymes” value is listed as “dramatic down-regulation”; the “expression of PDC components” value is “elevated”; the “levels and/or activities of EGFR, β1 integrin, Akt and MEK (oncogenic signaling)” value is recorded as “decrease”. The “mitochondrial activity (oxidation)” value in the assay with T4-2 cells [2] is listed as “essentially unaffected”. In addition, the “phenotypic reversion of the malignant phenotype” value in the assay with T4-2 cells [3] (2DG 4 mM, IA 20 μM, OX 50 mM, Azs 20 μM, DON 20 μM, BADGP 5 mM, TM 10 ng/ml, OGM 4 ng/ml, Rapa 0.01-1.0 μM) was “induced phenotypic reversion; also recorded: do induce phenotypic reversion”. Besides, in the assay on T4-2 cells [3] (setting [5]), the “basal polarity / organized acinar structures” value is “re-establishment of basally polarized acini” and the “growth / proliferation (cell numbers at the colony mid-section, EdU incorporation)” value was “growth arrest”. Further, the “mRNA expression of EGFR, β1 integrin and GLUT3” value in the assay with EGFR, ITGB1, GLUT3 mRNA is reported as “effectively suppressed”. Also, the “acinar morphology, basal polarity and growth rate of non-malignant cells” value in the assay with S1 cells is on record as “altered neither the acinar morphology nor the growth rate”. The “reversal of the disorganized phenotype caused by GLUT3 over-expression” value in assay [4] is reported as “could be reversed”.

The values are drawn from patent US9689042B2, “Use of glycolytic pathways for inhibiting or measuring oncogenic signaling” (The Regents of the University of California, priority 2012, dated 2017).
